Here are results for 18 compounds from ChEMBL document CHEMBL2203064, “Inhibitors of the acetyltransferase domain of N-acetylglucosamine-1-phosphate-uridylyltransferase/glucosamine-1-phosphate-acetyltransferase (GlmU). Part 2: Optimization of physical properties leading to antibacterial aryl sulfonamides” (Bioorg Med Chem Lett, 2012).

Each structure is given as a SMILES string. Converted amounts (≈) assume the structure as drawn. The source made the active and inactive calls. The calls are words filed in the database; no cut-off is given here.

The test system of data set [1] is Haemophilus influenzae. The data set is described as follows: Antibacterial activity against acrB efflux-pump deficient mutant of Haemophilus influenzae. The class given is functional.
A short description of data set [2]: Inhibition of Streptococcus pneumoniae GlmU.
Data set [3] is described as follows: Inhibition of Escherichia coli GlmU.
A short description of data set [4]: Inhibition of Haemophilus influenzae GlmU.
A short description of a further data set: physchem. The following applies: buffer, pH 7.4.
Data set [5] deals with Haemophilus influenzae. The data set can be described thus: Antibacterial activity against acrB efflux-pump deficient mutant of Haemophilus influenzae assessed as inhibition of lipid biosynthesis. The class given is functional, organism-based.
Data set [6] relates to Haemophilus influenzae. The data set is described as follows: Antibacterial activity against acrB efflux-pump deficient mutant of Haemophilus influenzae assessed as inhibition of cell-wall biosynthesis. The format is functional, organism-based.
The test system of data set [7] is Haemophilus influenzae. The data set is described as follows: Antibacterial activity against acrB efflux-pump deficient mutant of Haemophilus influenzae assessed as inhibition of radio-labeled biosynthetic precursor incorporation. The format is functional, organism-based.

Description for physchem: Lipophilicity, log D of the compound at pH 7.4

As a reminder, the IC50 is the point on the concentration scale where inhibition reaches its midpoint. As a reminder, the logD is the decadic logarithm of the distribution of all forms, ionised or not, between an organic phase and buffer at a given pH. A low value points to a more hydrophilic compound. Consider `COc1cc(OC)c(S(=O)(=O)N2c3ccccc3CCC2C)cc1NC(=O)Cc1ccnc(F)c1` (stereo unspecified), for which the MIC against Haemophilus influenzae [1] was above 128 µg/mL. The IC50 in data set [2] was determined as 9000 nM; in data set [3] it was 800 nM; in data set [4], 520 nM. This compound also displayed a logD in the data set “physchem” of 2.49.

In turn, `COc1cc(OC)c(S(=O)(=O)N2Cc3ccccc3Oc3ccccc32)cc1NC(=O)CCC(=O)O` showed an MIC against Haemophilus influenzae [1] of 32 µg/mL (≈ 62.4 µM). Besides, the IC50 was determined as 55000 nM in data set [2], 30 nM in data set [3] and 80 nM in data set [4].

Turning to `COc1cc(O)c(S(=O)(=O)N2c3ccccc3CCC2C)cc1NC(=O)[C@@H]1C(C)[C@H]1C(=O)O` (relative stereo), the MIC in the data set with Haemophilus influenzae [1] is 128 µg/mL (≈ 270 µM). The figures for the half-maximal inhibitory concentration (IC50) in data set [2], in data set [3] and in data set [4] were 7840 nM, below 480 nM and 380 nM, respectively.

`COc1cc(OC)c(S(=O)(=O)N2c3ccccc3Oc3ccccc32)cc1NC(=O)/C=C/C(=O)O` came in with an MIC in the data set with Haemophilus influenzae [1] of 64 µg/mL (≈ 129 µM). The IC50 in data set [2] was found to be 21500 nM; in data set [3], 10 nM; in data set [4], 20 nM. Moreover, the logD in the data set “physchem” was -0.71.

The compound `COc1cc(OC)c(S(=O)(=O)N2c3ccccc3Sc3ccccc32)cc1NC(=O)CCC(=O)O` yielded an MIC with Haemophilus influenzae [1] above 64 µg/mL. Besides, the IC50 in data set [2] is 36900 nM; in data set [3] it was 90 nM; in data set [4] it was 370 nM. The compound further yielded a logD in “physchem” of -0.31.

In the data set with Haemophilus influenzae [1], `COc1cc(OC)c(S(=O)(=O)N2c3ccccc3CCC2C)cc1NC(=O)[C@@H]1C(C)[C@H]1C(=O)O` (mixture of isomers) showed an MIC of 128 µg/mL. Moreover, the IC50 in data set [2] was determined as 5900 nM; in data set [3] it was 400 nM; in data set [4], 510 nM. The compound further gave a log distribution coefficient (logD) in the data set “physchem” of -0.39.

`COc1cc(OC)c(S(=O)(=O)N2c3ccccc3CCC2C)cc1NC(=O)CCc1nn[nH]n1` (stereo unspecified): the MIC against Haemophilus influenzae [1] is above 64 µg/mL. In addition, the IC50 was 24700 nM in data set [2], 430 nM in data set [3] and 600 nM in data set [4]. In addition, the logD in the data set “physchem” is -0.34.

Turning to `COc1cc(OC)c(S(=O)(=O)N(c2ccccc2)c2ccccc2)cc1NC(=O)CCC(=O)O`, the MIC against Haemophilus influenzae [1] was above 64 µg/mL. In addition, the IC50 in data set [2] is 25500 nM; in data set [3], 40 nM; in data set [4], 910 nM.

Regarding `COc1cc(OC)c(S(=O)(=O)N2c3ccccc3Oc3ccccc32)cc1NC(=O)Cc1ccncc1`, the MIC in the data set on Haemophilus influenzae [1] is 64 µg/mL (≈ 124 µM). The IC50 in data set [2] stood at 32000 nM; in data set [3], 60 nM; in data set [4], 30 nM.

In the data set on Haemophilus influenzae [1], `COc1cc(OC)c(S(=O)(=O)N2c3ccccc3Oc3ccccc32)cc1NC(=O)Cc1ccnc(F)c1` registered an MIC above 128 µg/mL. Further, the IC50 in data set [2] is 9900 nM; in data set [3], 90 nM; in data set [4] it was 30 nM. Also, the logD in the data set “physchem” was found to be 3.37.

Compound `COc1cc(OC)c(S(=O)(=O)N(c2ccccc2)c2ccc(N)cc2)cc1NC(=O)CCC(=O)O` had an MIC in the data set on Haemophilus influenzae [1] above 64 µg/mL. Besides, the IC50 was 40200 nM in data set [2], 20 nM in data set [3] and 400 nM in data set [4].

With `COc1cc(OC)c(S(=O)(=O)N2c3ccccc3Oc3ccccc32)cc1NC(=O)CCC(=O)O`, the inhibition entry in the data set on Haemophilus influenzae [5], in the data set with Haemophilus influenzae [6] and with Haemophilus influenzae [7] was “Active” each time. Also, in the data set on Haemophilus influenzae [1], the MIC was found to be 32 µg/mL (≈ 64.2 µM). Besides, the IC50 in data set [2] was determined as 14600 nM; in data set [3] it was 10 nM; in data set [4], 20 nM.

With `COc1cc(O)c(S(=O)(=O)N2c3ccccc3Oc3ccccc32)cc1NC(=O)[C@@H]1C(C)[C@H]1C(=O)O` (relative stereo), the MIC against Haemophilus influenzae [1] turned out to be 32 µg/mL (≈ 62.7 µM). The IC50 in data set [2] is 30300 nM; in data set [3], 60 nM; in data set [4], 30 nM.

In the case of `COc1cc(OC)c(S(=O)(=O)N(c2ccc(C)cc2)c2ccc(C)cc2)cc1NC(=O)CCC(=O)O`, in the data set on Haemophilus influenzae [1], the MIC stood at 32 µg/mL (≈ 62.4 µM). For the same compound, the figures for the IC50 in data set [2], in data set [3] and in data set [4] were 48000 nM, 40 nM and 320 nM, respectively.

As to `COc1cc(OC)c(S(=O)(=O)N2c3ccccc3CCC2C)cc1NC(=O)Cc1ccnc(C#N)c1` (stereo unspecified), the MIC against Haemophilus influenzae [1] is above 128 µg/mL. Besides, the results for the IC50 in data set [2], in data set [3] and in data set [4] were 10000 nM, 680 nM and 670 nM, respectively.

In the data set on Haemophilus influenzae [1], `COc1cc(OC)c(S(=O)(=O)N2c3ccccc3Oc3ccccc32)cc1NC(=O)[C@@H]1C(C)[C@H]1C(=O)O` (mixture of isomers) came in with an MIC of 32 µg/mL. The figures for the IC50 in data set [2], in data set [3] and in data set [4] were 5300 nM, 30 nM and 10 nM, respectively. Moreover, the log distribution coefficient (logD) in “physchem” was found to be 0.06.

In the case of `COc1cc(OC)c(S(=O)(=O)N(c2ccccc2)c2ccc3ccccc3c2)cc1NC(=O)CCC(=O)O`, the MIC in the data set on Haemophilus influenzae [1] was 32 µg/mL (≈ 59.9 µM). In addition, the IC50 in data set [2] was 8400 nM; in data set [3] it was 40 nM; in data set [4] it was 830 nM.

In the case of `COc1cc(O)c(S(=O)(=O)N2c3ccccc3CCC2C)cc1NC(=O)CCC(=O)O` (stereo unspecified), the inhibition result with Haemophilus influenzae [5], with Haemophilus influenzae [6] and in the data set with Haemophilus influenzae [7] was “Active” each time. In the data set with Haemophilus influenzae [1], this compound registered an MIC of 32 µg/mL (≈ 71.3 µM). Besides, the IC50 in data set [2] is 46600 nM; in data set [3] it was 50 nM; in data set [4], 280 nM. Also, in the data set “physchem”, the logD is -0.27.
